Laboratory results taken from ChEMBL document CHEMBL1151687, “Search for alpha-helical propensity in the receptor-bound conformation of glucagon-like peptide-1” (Bioorg Med Chem, 2008).
Positions of bridges follow the written chain, without caps; N, C: chain ends. Residues, ends and D or L forms follow the SMILES beside them.

Key:
[1] = target: T1, Glucagon-like peptide 1 receptor (Homo sapiens, UniProt P43220); assay: Displacement of [125I]exendin(9-39) from human GLP1R expressed in HEK293 cells; type: cell-based
[2] = target: T1, Glucagon-like peptide 1 receptor; assay: Activation of human GLP1R expressed in HEK293 cells assessed as effect on cAMP responsive element promoter driven luciferase expression; type: functional, cell-based

T1 sequence (P43220 whole entry): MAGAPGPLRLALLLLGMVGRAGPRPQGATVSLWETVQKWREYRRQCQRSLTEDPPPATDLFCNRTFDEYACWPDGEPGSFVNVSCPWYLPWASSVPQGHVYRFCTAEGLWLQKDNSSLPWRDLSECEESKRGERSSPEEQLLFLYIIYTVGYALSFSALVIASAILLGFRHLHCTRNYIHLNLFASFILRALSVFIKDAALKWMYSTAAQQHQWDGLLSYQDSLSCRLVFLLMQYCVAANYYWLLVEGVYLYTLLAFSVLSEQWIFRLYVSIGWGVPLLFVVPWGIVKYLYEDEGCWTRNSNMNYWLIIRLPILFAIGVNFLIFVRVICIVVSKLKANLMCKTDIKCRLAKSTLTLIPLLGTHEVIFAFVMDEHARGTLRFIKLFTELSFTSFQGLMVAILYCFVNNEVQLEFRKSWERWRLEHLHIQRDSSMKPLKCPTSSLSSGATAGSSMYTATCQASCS

Structure (SMILES) | IC50 [1] [nM] | EC50 [2] [nM] | IC50 ([1]; hek293) [nM] | EC50 ([2]; hek293) [nM]
CC[C@H](C)[C@H](NC(=O)[C@H](CCC(=O)O)NC(=O)[C@H](CCCCN)NC(=O)[C@H](C)NC(=O)[C@H](C)NC(=O)[C@H](CCC(N)=O)NC(=O)[C@H](CCC(N)=O)NC(=O)[C@H](CCC(=O)O)NC(=O)[C@H](CC(C)C)NC(=O)[C@H](Cc1ccc(O)cc1)NC(=O)[C@H](CCCCNC(C)=O)NC(=O)[C@H](CO)NC(=O)[C@@H](NC(=O)[C@H](CC(=O)O)NC(=O)[C@H](CO)NC(=O)[C@@H](NC(=O)[C@H](Cc1ccccc1)NC(=O)[C@@H](NC(=O)CNC(=O)[C@H](CCC(=O)O)NC(=O)[C@H](C)NC(=O)[C@@H](N)Cc1cnc[nH]1)[C@@H](C)O)[C@@H](C)O)C(C)C)C(=O)N[C@@H](Cc1ccccc1)C(=O)N[C@@H](C)C(=O)N[C@@H](Cc1c[nH]c2ccccc12)C(=O)N[C@@H](CC(C)C)C(=O)N[C@H](C(=O)N[C@@H](CCCCN)C(=O)NCC(=O)N[C@@H](CCCNC(=N)N)C(N)=O)C(C)C (H-HAEGTFTSDVSK(Ac)YLEQQAAKEIFAWLVKGR-NH2) | 17 | 0.0038 |  | 
CC[C@H](C)[C@H](NC(=O)[C@H](Cc1ccccc1)NC(=O)[C@H](CCC(=O)O)NC(=O)[C@H](CCCCN)NC(=O)[C@H](C)NC(=O)[C@H](C)NC(=O)[C@H](CCC(N)=O)NC(=O)[C@@H]1CCC(=O)NCCCC[C@H](NC(=O)[C@H](CO)NC(=O)[C@@H](NC(=O)[C@H](CC(=O)O)NC(=O)[C@H](CO)NC(=O)[C@@H](NC(=O)[C@H](Cc2ccccc2)NC(=O)[C@@H](NC(=O)CNC(=O)[C@H](CCC(=O)O)NC(=O)[C@H](C)NC(=O)[C@@H](N)Cc2cnc[nH]2)[C@@H](C)O)[C@@H](C)O)C(C)C)C(=O)N[C@@H](Cc2ccc(O)cc2)C(=O)N[C@@H](CC(C)C)C(=O)N[C@@H](CCC(=O)O)C(=O)N1)C(=O)N[C@@H](C)C(=O)N[C@@H](Cc1c[nH]c2ccccc12)C(=O)N[C@@H](CC(C)C)C(=O)N[C@H](C(=O)N[C@@H](CCCCN)C(=O)NCC(=O)N[C@@H](CCCN=C(N)N)C(N)=O)C(C)C (H-HAEGTFTSDVSKYLEEQAAKEFIAWLVKGR-NH2; lactam 12-16) | 15.1 | 0.002 |  | 
CC[C@H](C)[C@H](NC(=O)[C@H](CCC(=O)O)NC(=O)[C@H](CCCCN)NC(=O)[C@H](C)NC(=O)[C@H](CCC(N)=O)NC(=O)[C@H](CCC(N)=O)NC(=O)CNC(=O)[C@H](CCC(=O)O)NC(=O)[C@H](CCCCNC(C)=O)NC(=O)[C@H](Cc1ccc(O)cc1)NC(=O)[C@H](CO)NC(=O)[C@H](CO)NC(=O)[C@@H](NC(=O)[C@H](CC(=O)O)NC(=O)[C@H](CO)NC(=O)[C@@H](NC(=O)[C@H](Cc1ccccc1)NC(=O)[C@@H](NC(=O)CNC(=O)[C@H](CCC(=O)O)NC(=O)[C@H](C)NC(=O)[C@@H](N)Cc1cnc[nH]1)[C@@H](C)O)[C@@H](C)O)C(C)C)C(=O)N[C@@H](Cc1ccccc1)C(=O)N[C@@H](C)C(=O)N[C@@H](Cc1c[nH]c2ccccc12)C(=O)N[C@@H](CC(C)C)C(=O)N[C@H](C(=O)N[C@@H](CCCCN)C(=O)NCC(=O)N[C@@H](CCCNC(=N)N)C(N)=O)C(C)C (H-HAEGTFTSDVSSYK(Ac)EGQQAKEIFAWLVKGR-NH2) | 1200 | 0.1 |  | 
CC[C@H](C)[C@H](NC(=O)[C@H](Cc1ccccc1)NC(=O)[C@H](CCC(=O)O)NC(=O)[C@H](CCCCN)NC(=O)[C@H](C)NC(=O)[C@@H]1CCC(=O)NCCCC[C@H](NC(=O)[C@H](Cc2ccc(O)cc2)NC(=O)[C@H](CO)NC(=O)[C@H](CO)NC(=O)[C@@H](NC(=O)[C@H](CC(=O)O)NC(=O)[C@H](CO)NC(=O)[C@@H](NC(=O)[C@H](Cc2ccccc2)NC(=O)[C@@H](NC(=O)CNC(=O)[C@H](CCC(=O)O)NC(=O)[C@H](C)NC(=O)[C@@H](N)Cc2cnc[nH]2)[C@@H](C)O)[C@@H](C)O)C(C)C)C(=O)N[C@@H](CCC(=O)O)C(=O)NCC(=O)N[C@@H](CCC(N)=O)C(=O)N1)C(=O)N[C@@H](C)C(=O)N[C@@H](Cc1c[nH]c2ccccc12)C(=O)N[C@@H](CC(C)C)C(=O)N[C@H](C(=O)N[C@@H](CCCCN)C(=O)NCC(=O)N[C@@H](CCCNC(=N)N)C(N)=O)C(C)C (H-HAEGTFTSDVSSYKEGQEAKEFIAWLVKGR-NH2; lactam 14-18) |  |  | 3000 | 0.36
CC[C@H](C)[C@H](NC(=O)[C@H](CCC(=O)O)NC(=O)[C@H](CCCCN)NC(=O)[C@H](C)NC(=O)[C@H](C)NC(=O)[C@H](CCC(N)=O)NC(=O)CNC(=O)[C@H](CCC(=O)O)NC(=O)[C@H](CC(C)C)NC(=O)[C@H](Cc1ccc(O)cc1)NC(=O)[C@H](CO)NC(=O)[C@H](CO)NC(=O)[C@@H](NC(=O)[C@H](CC(=O)O)NC(=O)[C@H](CO)NC(=O)[C@@H](NC(=O)[C@H](Cc1ccccc1)NC(=O)[C@@H](NC(=O)CNC(=O)[C@H](CCC(=O)O)NC(=O)[C@H](C)NC(=O)[C@@H](N)Cc1cnc[nH]1)[C@@H](C)O)[C@@H](C)O)C(C)C)C(=O)N[C@@H](Cc1ccccc1)C(=O)N[C@@H](C)C(=O)N[C@@H](Cc1c[nH]c2ccccc12)C(=O)N[C@@H](CC(C)C)C(=O)N[C@H](C(=O)N[C@@H](CCCCN)C(=O)NCC(=O)N[C@@H](CCCN=C(N)N)C(=O)O)C(C)C (H-HAEGTFTSDVSSYLEGQAAKEIFAWLVKGR-OH) |  |  | 2.6 | 0.0036
CC[C@H](C)[C@H](NC(=O)[C@H](CCC(=O)O)NC(=O)[C@H](CCCCN)NC(=O)[C@H](CCC(N)=O)NC(=O)[C@H](C)NC(=O)[C@H](CCC(N)=O)NC(=O)CNC(=O)[C@H](CCCCNC(C)=O)NC(=O)[C@H](CC(C)C)NC(=O)[C@H](Cc1ccc(O)cc1)NC(=O)[C@H](CO)NC(=O)[C@H](CO)NC(=O)[C@@H](NC(=O)[C@H](CC(=O)O)NC(=O)[C@H](CO)NC(=O)[C@@H](NC(=O)[C@H](Cc1ccccc1)NC(=O)[C@@H](NC(=O)CNC(=O)[C@H](CCC(=O)O)NC(=O)[C@H](C)NC(=O)[C@@H](N)Cc1cnc[nH]1)[C@@H](C)O)[C@@H](C)O)C(C)C)C(=O)N[C@@H](Cc1ccccc1)C(=O)N[C@@H](C)C(=O)N[C@@H](Cc1c[nH]c2ccccc12)C(=O)N[C@@H](CC(C)C)C(=O)N[C@H](C(=O)N[C@@H](CCCCN)C(=O)NCC(=O)N[C@@H](CCCNC(=N)N)C(N)=O)C(C)C (H-HAEGTFTSDVSSYLK(Ac)GQAQKEIFAWLVKGR-NH2) | 1600 | 0.12 |  | 
CC[C@H](C)[C@H](NC(=O)[C@H](Cc1ccccc1)NC(=O)[C@H](CCC(=O)O)NC(=O)[C@H](CCCCN)NC(=O)[C@@H]1CCC(=O)NCCCC[C@H](NC(=O)[C@H](CC(C)C)NC(=O)[C@H](Cc2ccc(O)cc2)NC(=O)[C@H](CO)NC(=O)[C@H](CO)NC(=O)[C@@H](NC(=O)[C@H](CC(=O)O)NC(=O)[C@H](CO)NC(=O)[C@@H](NC(=O)[C@H](Cc2ccccc2)NC(=O)[C@@H](NC(=O)CNC(=O)[C@H](CCC(=O)O)NC(=O)[C@H](C)NC(=O)[C@@H](N)Cc2cnc[nH]2)[C@@H](C)O)[C@@H](C)O)C(C)C)C(=O)NCC(=O)N[C@@H](CCC(N)=O)C(=O)N[C@@H](C)C(=O)N1)C(=O)N[C@@H](C)C(=O)N[C@@H](Cc1c[nH]c2ccccc12)C(=O)N[C@@H](CC(C)C)C(=O)N[C@H](C(=O)N[C@@H](CCCCN)C(=O)NCC(=O)N[C@@H](CCCNC(=N)N)C(N)=O)C(C)C (H-HAEGTFTSDVSSYLKGQAEKEFIAWLVKGR-NH2; lactam 15-19) |  |  | 9200 | 1.1
